Test system: SEM cells
Assay: cell viability relative to DMSO control; higher = less cytotoxic
Settings: 48 h
Outline: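 NOMO1 or SEM cells were plated at 500 cells/well and P12-Ichikawa cells at 1000 cells/well in 1536-well plates (5 μl), after each leukemia line had been adapted for at least four passages in each medium. Pin dosing delivered library compounds in DMSO at 11 threefold concentrations, 47 μM to 0.79 nM. CellTiter-Glo One luminescence was read after 48 h at 37°C. Viability is reported as a per-plate percentage of DMSO wells, with cell-free wells as background.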

[1] = HPLM + 10% dialyzed FBS, 0.000781 µM
[2] = HPLM + 10% dialyzed FBS, 0.00234 µM
[3] = HPLM + 10% dialyzed FBS, 0.00702 µM
[4] = HPLM + 10% dialyzed FBS, 0.0211 µM
[5] = HPLM + 10% dialyzed FBS, 0.0632 µM
[6] = HPLM + 10% dialyzed FBS, 0.19 µM
[7] = HPLM + 10% dialyzed FBS, 0.569 µM
[8] = HPLM + 10% dialyzed FBS, 1.71 µM
[9] = HPLM + 10% dialyzed FBS, 5.12 µM
[10] = HPLM + 10% dialyzed FBS, 15.4 µM
[11] = HPLM + 10% dialyzed FBS, 46.1 µM
[12] = RPMI 5 mM glucose + 10% FBS, 0.000781 µM
[13] = RPMI 5 mM glucose + 10% FBS, 0.00234 µM
[14] = RPMI 5 mM glucose + 10% FBS, 0.00702 µM
[15] = RPMI 5 mM glucose + 10% FBS, 0.0211 µM
[16] = RPMI 5 mM glucose + 10% FBS, 0.0632 µM
[17] = RPMI 5 mM glucose + 10% FBS, 0.19 µM
[18] = RPMI 5 mM glucose + 10% FBS, 0.569 µM
[19] = RPMI 5 mM glucose + 10% FBS, 1.71 µM
[20] = RPMI 5 mM glucose + 10% FBS, 5.12 µM
[21] = RPMI 5 mM glucose + 10% FBS, 15.4 µM
[22] = RPMI 5 mM glucose + 10% FBS, 46.1 µM
[23] = RPMI 5 mM glucose + 10% dialyzed FBS, 0.000781 µM
[24] = RPMI 5 mM glucose + 10% dialyzed FBS, 0.00234 µM
[25] = RPMI 5 mM glucose + 10% dialyzed FBS, 0.00702 µM
[26] = RPMI 5 mM glucose + 10% dialyzed FBS, 0.0211 µM
[27] = RPMI 5 mM glucose + 10% dialyzed FBS, 0.0632 µM
[28] = RPMI 5 mM glucose + 10% dialyzed FBS, 0.19 µM
[29] = RPMI 5 mM glucose + 10% dialyzed FBS, 0.569 µM
[30] = RPMI 5 mM glucose + 10% dialyzed FBS, 1.71 µM
[31] = RPMI 5 mM glucose + 10% dialyzed FBS, 5.12 µM
[32] = RPMI 5 mM glucose + 10% dialyzed FBS, 15.4 µM
[33] = RPMI 5 mM glucose + 10% dialyzed FBS, 46.1 µM

| Structure (SMILES) | cell viability [1] | cell viability [2] | cell viability [3] | cell viability [4] | cell viability [5] | cell viability [6] | cell viability [7] | cell viability [8] | cell viability [9] | cell viability [10] | cell viability [11] | cell viability [12] | cell viability [13] | cell viability [14] | cell viability [15] | cell viability [16] | cell viability [17] | cell viability [18] | cell viability [19] | cell viability [20] | cell viability [21] | cell viability [22] | cell viability [23] | cell viability [24] | cell viability [25] | cell viability [26] | cell viability [27] | cell viability [28] | cell viability [29] | cell viability [30] | cell viability [31] | cell viability [32] | cell viability [33] |
| --- | --- | --- | --- | --- | --- | --- | --- | --- | --- | --- | --- | --- | --- | --- | --- | --- | --- | --- | --- | --- | --- | --- | --- | --- | --- | --- | --- | --- | --- | --- | --- | --- | --- |
| NC(=O)NO | 83% | 79.5% | 89.4% | 85.6% | 93.5% | 96.1% | 80.1% | 75.2% | 31.6% | 13.8% | 2.15% | 99.3% | 89.3% | 96.1% | 94.8% | 100% | 93% | 103% | 86.1% | 37.2% | 7.56% | 1.61% | 77.9% | 79.6% | 93% | 88.4% | 96.2% | 84.4% | 95.5% | 87% | 32.3% | 5.86% | 1.96% |
| CC(C)(O)c1cc2nc(-c3cnc(N)nc3)nc(N3CCOCC3)c2s1 | 122% | 125% | 99.7% | 113% | 106% | 106% | 77.2% | 59.9% | 44.5% | 41% | 38% | 82.9% | 79.1% | 74.3% | 76% | 78.2% | 68.4% | 57.1% | 39.1% | 29.1% | 26.7% | 23.3% | 106% | 113% | 97.7% | 107% | 105% | 94.7% | 81.4% | 52.3% | 48.1% | 47.8% | 37.3% |
| N#C/C(C(=O)c1ccc(Cl)cc1Cl)=C1/NC(=O)c2ccc(Cl)cc2N1 | 124% | 132% | 124% | 125% | 129% | 121% | 123% | 112% | 110% | 117% | 111% |  |  |  |  |  |  |  |  |  |  |  | 99.5% | 125% | 131% | 126% | 127% | 108% | 111% | 137% | 79.5% | 105% | 108% |
| C#CCN[C@@H]1CCc2ccccc21.CS(=O)(=O)O | 105% | 101% | 83.6% | 86.2% | 110% | 108% | 107% | 106% | 41.2% | 91.7% | 89.2% | 103% | 112% | 56.8% | 97.3% | 112% | 105% | 106% | 100% | 24.4% | 96% | 95.2% | 107% | 116% | 74.2% | 82.9% | 99.7% | 105% | 99.8% | 106% | 42.8% | 110% | 86.3% |
| NC(=O)c1ncn([C@@H]2O[C@H](CO)[C@@H](O)[C@H]2O)c1O | 128% | 118% | 82.8% | 120% | 117% | 117% | 115% | 130% | 118% | 123% | 104% | 112% | 127% | 89.1% | 137% | 131% | 131% | 115% | 118% | 121% | 117% | 114% | 98.7% | 104% | 85.8% | 128% | 121% | 104% | 112% | 115% | 113% | 116% | 113% |
| CON(C)C(=O)N1/N=C(S[C@@]1(CCCN)C2=CC=CC=C2)/C3=CC(=CC=C3F)F | 96.3% | 99.9% | 42.5% | 21.7% | 23.9% | 24.4% | 22% | 21.3% | 10.6% | 19.7% | 15.3% |  |  |  |  |  |  |  |  |  |  |  | 100% | 114% | 111% | 30.4% | 24.4% | 22.7% | 24.1% | 24.8% | 13% | 22.2% | 16.4% |
| C[C@H]1O[C@H](C[C@H](O)[C@@H]1O)O[C@H]2[C@@H](O)C[C@@H](O[C@@H]2C)O[C@H]3[C@@H](O)C[C@@H](O[C@@H]3C)O[C@H]4CC[C@@]5(C)[C@H](CC[C@@H]6[C@@H]5C[C@@H](O)[C@]7(C)[C@H](CC[C@]67O)C/8=C/C(=O)OC8)C4 | 117% | 106% | 122% | 123% | 30.4% | 15.2% | 11% | 7.74% | 7.71% | 8.32% | 6.4% |  |  |  |  |  |  |  |  |  |  |  |  |  |  |  |  |  |  |  |  |  |  |
| CNC(=O)Nc1ccc(-c2nc(N3CC4CCC(C3)O4)c3cnn(C4CCC5(CC4)OCCO5)c3n2)cc1 | 109% | 106% | 97.8% | 83.9% | 73.8% | 53.6% | 58.1% | 53% | 45.9% | 34.3% | 36.9% | 76.6% | 77.9% | 65.6% | 51% | 43.2% | 36.8% | 40.1% | 34% | 25.3% | 22.9% | 14.5% | 105% | 106% | 88.7% | 80.7% | 71.6% | 56.2% | 59.4% | 53.9% | 39.6% | 31.3% | 41.4% |
| Cc1c(C)c2c(c(C)c1O)CCC(C)(COc1ccc(CC3SC(=O)NC3=O)cc1)O2 (configuration not stated) | 119% | 113% | 127% | 117% | 124% | 117% | 128% | 132% | 141% | 112% | 93.1% |  |  |  |  |  |  |  |  |  |  |  | 104% | 101% | 127% | 106% | 126% | 121% | 136% | 134% | 154% | 95.4% | 84.9% |

Reference: the supplement of paper PMC11451515
